The results in this text go back to PMC2192625 (The Journal of Experimental Medicine, 1996).

Assay [1] deals with HLA-DRA-IEα/HLA-DRB1*0401-IEβ chimeric molecules purified from transfected M12.C3 cells (Homo sapiens, UniProt P01903+P01911, A100K/A169T/F76Y/I96L/K127E/L162R/M171V/N62H/P40V/Q125Y/R42H/S133A/S149N/S66Y/V115G/V209L/W38E). Put plainly: biochemical. The format is binding, human/mouse chimeric.
In assay [2] the target is HLA-DRB1*0401 molecules purified from Priess cells (Homo sapiens, UniProt P01903+P01911, A100K/A169T/F76Y/I96L/K127E/L162R/M171V/N62H/P40V/Q125Y/R42H/S133A/S149N/S66Y/V115G/V209L/W38E). Put plainly: biochemical. The format is binding.
The test system of assay [3] is experimental allergic encephalomyelitis in HLA-DRA-IEα/HLA-DRB1*0401-IEβ Tg mice. The format is in vivo, mouse.

The structures appear in SMILES notation. Read-outs that look alike come from different tables or passages of the source. Residues, ends and D or L forms follow the SMILES beside them.

For the molecule `CC[C@H](C)[C@H](NC(=O)[C@H](CO)NC(=O)[C@H](CCC(N)=O)NC(=O)[C@H](CS)NC(=O)[C@@H](NC(=O)[C@@H](NC(=O)[C@H](Cc1c[nH]c2ccccc12)NC(=O)[C@@H](NC(=O)[C@H](CC(N)=O)NC(=O)[C@H](Cc1ccccc1)NC(=O)[C@H](Cc1ccc(O)cc1)NC(=O)[C@@H](NC(=O)[C@@H](N)Cc1ccc(O)cc1)[C@@H](C)CC)[C@@H](C)O)[C@@H](C)O)[C@@H](C)O)C(=O)N[C@@H](C)C(=O)N[C@@H](Cc1ccccc1)C(=O)N1CCC[C@H]1C(=O)N[C@@H](CO)C(=O)N[C@@H](CCCCN)C(=O)O` [PLP175-192] (H-YIYFNTWTTCQSIAFPSK-OH), the IC50 in assay [1] turned out to be 169 nM; in assay [2], 187 nM.
Regarding `CC[C@H](C)[C@H](NC(=O)[C@H](CC(N)=O)NC(=O)[C@H](CCCCN)NC(=O)[C@H](Cc1ccccc1)NC(=O)[C@H](Cc1ccccc1)NC(=O)[C@H](Cc1c[nH]cn1)NC(=O)[C@@H](NC(=O)[C@@H](N)C(C)C)C(C)C)C(=O)N[C@H](C(=O)N[C@H](C(=O)N1CCC[C@H]1C(=O)N[C@@H](CCCNC(=N)N)C(=O)N[C@H](C(=O)N1CCC[C@H]1C(=O)N1CCC[C@H]1C(=O)N1CCC[C@H]1C(=O)N[C@@H](CO)C(=O)N[C@@H](CCC(N)=O)C(=O)NCC(=O)N[C@@H](CCCCN)C(=O)O)[C@@H](C)O)[C@@H](C)O)C(C)C` [MBP87-106] (H-VVHFFKNIVTPRTPPPSQGK-OH; N-terminus and C-terminus assumed), the “Severity: number of mice with clinical score 0 (no disease)” value in assay [3] (Non-Tg mice, n = 5, Table 2) is listed as 5. For the same molecule, the “EAE developed (in words)” value in assay [3] (Tg mice) is “only a mild EAE”. Also, in assay [3] (Tg mice, n = 5, Table 2), the “Severity: number of mice with clinical score 0 (no disease)” value was 2, the “Severity: number of mice with clinical score 1 (tail atony)” value turned out to be 2 and the “Severity: number of mice with clinical score 3 (hind-limb paralysis)” value was 1.
In the case of `CSCC[C@H](NC(=O)[C@H](C)NC(=O)[C@H](CCCNC(=N)N)NC(=O)[C@@H](N)Cc1ccc(O)cc1)C(=O)N[C@@H](C)C(=O)N[C@@H](CO)C(=O)N[C@@H](CC(C)C)C(=O)O` [Peptide S6-m1-7] (H-YRAMASL-OH), the half-maximal inhibitory concentration (IC50) turned out to be 53 nM in assay [1] and 43 nM in assay [2].
`CSCC[C@H](NC(=O)[C@H](C)NC(=O)[C@H](CCCNC(=N)N)NC(=O)[C@@H](N)Cc1ccc(O)cc1)C(=O)N[C@@H](C)C(=O)N[C@@H](C)C(=O)N[C@@H](CC(C)C)C(=O)O` [Peptide A6-m1-7] (H-YRAMAAL-OH): the half-maximal inhibitory concentration (IC50) is 530 nM in assay [1] and 410 nM in assay [2].
The matching figures for `CSCC[C@H](NC(=O)[C@H](C)NC(=O)[C@H](CCCNC(=N)N)NC(=O)[C@@H](N)Cc1ccc(O)cc1)C(=O)N[C@@H](C)C(=O)N[C@H](C(=O)N[C@@H](CC(C)C)C(=O)O)[C@@H](C)O` [m 1-7] (H-YRAMATL-OH): 130 nM and 120 nM.
